For one molecule, IC50 results are on record in PMC9487482, “Activity of Tricyclic Pyrrolopyrimidine Gyrase B Inhibitor against Mycobacterium abscessus” (Antimicrobial Agents and Chemotherapy, 2022).

In the assay the target is T1, DNA gyrase subunit B (GyrB) (Mycobacteroides abscessus, UniProt B1ME45).
T1 construct: recombinant M. abscessus ATCC 19977 DNA gyrase (A2B2 heterotetramer); with DNA gyrase subunit A (GyrA)
Nature of the assay: DNA supercoiling inhibition assay (relaxed pBR322, agarose gel). In kind it is biochemical.

T1 sequence (B1ME45 entry or part of it): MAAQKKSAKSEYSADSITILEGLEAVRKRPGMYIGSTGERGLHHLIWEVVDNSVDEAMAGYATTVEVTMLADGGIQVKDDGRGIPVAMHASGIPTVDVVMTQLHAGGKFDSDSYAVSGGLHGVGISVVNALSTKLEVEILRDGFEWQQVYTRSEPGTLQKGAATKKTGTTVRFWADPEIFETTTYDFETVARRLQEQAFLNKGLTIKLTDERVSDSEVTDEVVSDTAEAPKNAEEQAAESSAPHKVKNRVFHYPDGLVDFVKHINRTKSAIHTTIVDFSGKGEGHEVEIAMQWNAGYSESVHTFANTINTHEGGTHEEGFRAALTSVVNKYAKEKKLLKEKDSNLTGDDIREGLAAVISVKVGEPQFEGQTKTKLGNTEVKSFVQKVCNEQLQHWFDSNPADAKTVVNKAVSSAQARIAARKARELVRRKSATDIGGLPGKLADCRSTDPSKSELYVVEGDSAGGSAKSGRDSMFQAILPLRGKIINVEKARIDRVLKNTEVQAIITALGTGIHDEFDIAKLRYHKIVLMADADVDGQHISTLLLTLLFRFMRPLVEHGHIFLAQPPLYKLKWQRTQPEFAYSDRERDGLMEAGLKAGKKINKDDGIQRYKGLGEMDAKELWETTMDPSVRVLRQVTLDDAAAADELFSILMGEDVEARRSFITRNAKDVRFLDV
T1 sequence (B1ME58 entry or part of it, further chain): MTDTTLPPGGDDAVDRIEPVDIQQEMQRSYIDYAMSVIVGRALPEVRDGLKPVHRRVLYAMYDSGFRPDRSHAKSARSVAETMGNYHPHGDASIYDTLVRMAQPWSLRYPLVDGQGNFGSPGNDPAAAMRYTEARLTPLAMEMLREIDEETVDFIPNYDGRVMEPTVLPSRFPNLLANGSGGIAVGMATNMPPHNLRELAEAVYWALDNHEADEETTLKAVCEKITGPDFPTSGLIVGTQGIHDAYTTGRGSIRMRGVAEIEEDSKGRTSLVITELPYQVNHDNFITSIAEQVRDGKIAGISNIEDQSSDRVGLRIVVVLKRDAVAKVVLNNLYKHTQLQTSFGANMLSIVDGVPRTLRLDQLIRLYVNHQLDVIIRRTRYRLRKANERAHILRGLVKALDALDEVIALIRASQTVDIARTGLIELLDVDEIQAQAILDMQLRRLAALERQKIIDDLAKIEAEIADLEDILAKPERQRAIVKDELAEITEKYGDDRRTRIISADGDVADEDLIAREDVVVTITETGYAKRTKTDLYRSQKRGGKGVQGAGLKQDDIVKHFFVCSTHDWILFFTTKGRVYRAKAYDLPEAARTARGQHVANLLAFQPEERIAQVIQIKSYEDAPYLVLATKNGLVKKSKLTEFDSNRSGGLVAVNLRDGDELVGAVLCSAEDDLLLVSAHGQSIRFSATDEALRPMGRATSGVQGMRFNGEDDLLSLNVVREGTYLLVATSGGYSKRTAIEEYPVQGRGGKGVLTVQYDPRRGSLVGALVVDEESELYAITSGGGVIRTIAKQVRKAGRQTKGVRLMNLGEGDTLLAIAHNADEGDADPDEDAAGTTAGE

One may read the IC50 as the midpoint of a concentration-inhibition curve. A high value points to weaker potency. Turning to `CCNC(=O)Nc1nc2cc(-c3cnc(C(C)(C)O)nc3)c(F)c([C@H]3CCCO3)c2[nH]1` [SPR719], the IC50 came out at 1000 nM.
